Experimental data as given in BindingDB's records for doi:10.1016/j.bioorg.2014.02.002 (Swami Ramanand Teerth Marathwada University, 2014).
Where “and” joins values, the source holds several entries; their conditions need not be identical. Identical values can stand only once.

biological target: Aldose reductase (Capra hircus); test: The reaction mixture contained 1 mL of 1 M potassium phosphate buffer (pH 6.2), 0.4 mM lithium sulfate and 5 µM 2-mercaptoethanol, 10 µM DL-glyceraldehyde, […], and crude enzyme. The reaction mixture was incubated at 37 °C for 10 min. The reaction was initiated by the addition of NADPH and the decrease in absorbance was measured a

`NC1=NNC(=O)C1=Cc1cn(-c2ccccc2)nc1-c1ccc(Cl)cc1` [(4E)‐5‐amino‐4‐{[3‐(4‐chlorophenyl)‐1‐ phenylpyrazol‐4‐yl]methylidene}‐2H‐pyrazol‐3‐one (1e)] and `NC(=S)N1N=C(N)C(=Cc2cn(-c3ccccc3)nc2-c2ccc(Cl)cc2)C1=O` [(4E)‐3‐amino‐4‐{[3‐(4‐chlorophenyl)‐1‐ phenylpyrazol‐4‐yl]methylidene}‐5‐oxopyrazole‐1‐ carbothioamide (2e)] are within 1.5-fold of each other in IC50: 9.2 µM for the first, 6.3 µM for the second.

`COc1ccc(-c2cc(C=C3C(=O)N(C(N)=S)N=C3N)n(-c3ccccc3)n2)cc1` [(4Z)‐3‐amino‐4‐{[5‐(4‐methoxyphenyl)‐2‐ phenylpyrazol‐3‐yl]methylidene}‐5‐oxopyrazole‐1‐ carbothioamide (2d)] gave an IC50 of 8.1 µM.

For `NC(=S)N1C=C(N)C(=Cc2ccc(F)cc2)C1=O` [(3Z)‐4‐amino‐3‐[(4‐methoxyphenyl)methylidene]‐2‐ oxopyrrole‐1‐carbothioamide (2c)], the IC50 was 11.9 µM and 12.8 µM.
